Test results published in US10738028B2, “Spiro three-membered ring, spiro five-membered ring peptide deformylase inhibitor and use thereof in antibacteria and anti-tumor” (priority 2016, dated 2020).
Values after ≈ are worked out from the molar mass of the structure shown. Where two headings read alike, the source gives them in different places.

Key:
Format in all cases: cell-based
[1] = system: MGC-803 gastric cancer cell line; assay: CCK-8 proliferation inhibition; conditions: Homo sapiens, MGC-803, 72 h, concentration of 30 μM
From the text: (§1) 2. The present invention adopts the CCK-8 method to determine the proliferation inhibition effect of the spiro three-membered ring, spiro five-membered ring peptide deformylase inhibitor as described in Examples 1-80 against colorectal cancer cells, lung cancer cells, gastric cancer cells, liver cancer cells, and the like. […] The compound having the best activity synthesized in Example 64 was further tested for its inhibitory activity against other tumor cells including T cell leukemia, acute myeloid leukemia, cervical cancer, breast cancer, prostate cancer and osteosarcoma, and the like (see Table 7).
(§2) (1) HCT-116 colorectal cancer cell line, A549 lung cancer cell line, MGC-803 gastric cancer cell line, BEL-7402 liver cancer cell line, Jurkat T cell leukemia cell line, HL60 acute myeloid leukemia cell line, Hela cervical cancer cell line, MCF-7 breast cancer cell line, PC3 prostate cancer cell line and SAOS-2 osteosarcoma cell line were made into single cell suspension, 180 μL of which was inoculated into 96-well culture plate, which was cultured overnight in CO2 incubator (37° C., 5% CO2, 95% air).
(§3) (2) Each of the spiro three-membered ring, spiro five membered ring peptide deformylase inhibitors was dissolved in DMSO, and was further formulated into drug solution with required different final concentration using corresponding cell culture medium. The drug solutions were added to the above cells respectively (20 μL/well), with the control group added with 1‰ DMSO, and cultured in a CO2 incubator for 72 hours.
(§4) (3) After incubation for 72 hours, the culture solution was decanted, and 100 μL of 1:10 diluted CCK-8 solution was added.
(§5) Wherein, in step (1), the concentration of the single cell suspension was 2000 cells/well.
(§6) Wherein, in step (2), HCT-116 cells were cultured in McCoy's 5A medium (containing 10% newborn bovine serum, 1% double antibody); A549 and PC3 cells were cultured in F12 medium (containing 10% newborn bovine serum, 1% double antibody); MGC-803, BEL-7402, SAOS-2, Jurkat and HL60 cells were cultured in 1640 medium (containing 10% newborn bovine serum, 1% double antibody); and MCF-7 and Hela cells were cultured in DMEM high glucose medium (containing 10% newborn bovine serum, 1% double antibody).

[2] = system: BEL-7402 liver cancer cell line; assay: CCK-8 proliferation inhibition; conditions: concentration of 30 μM
From the text: as §1, §2, §3, §4, §5, §6

[3] = system: A549 lung cancer cell line; assay: CCK-8 proliferation inhibition; conditions: Homo sapiens, A549, 72 h, concentration of 30 μM
From the text: as §1, §2, §3, §4, §5, §6

[4] = system: methicillin-resistant Staphylococcus aureus (MRSA); assay: MIC, two-fold agar dilution (CLSI), clinical isolates
How it was run: (§7)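 Following the American Clinical and Laboratory Standards Institute procedure, agar two-fold dilution served to determine minimum inhibitory concentrations.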

[5] = system: Escherichia coli (including ESBLs, non-ESBLs); assay: as above
How it was run: as §7

[6] = system: Streptococcus pneoumoniae (SPN); assay: as above
How it was run: as §7

[7] = system: methicillin-sensitive Staphylococcus epidermidis (MSSE); assay: as above
How it was run: as §7

[8] = system: methicillin-resistant Staphylococcus epidermidis (MRSE); assay: as above
How it was run: as §7

[9] = system: Enterococcus faecium (EFM); assay: as above
How it was run: as §7

[10] = system: Moraxella catarrhalis (BCA); assay: as above; conditions: for MIC: Moraxella catarrhalis
How it was run: as §7

[11] = system: Enterococcus faecalis (EFA); assay: as above
How it was run: as §7

[12] = system: methicillin-sensitive Staphylococcus aureus (MSSA); assay: as above
How it was run: as §7

[13] = system: HCT-116 colorectal cancer cell line; assay: CCK-8 proliferation inhibition; conditions: concentration of 30 μM, 72 hours, CCK-8
How it was run: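 2000 cells/well, McCoy's 5A + 10% newborn bovine serum; overnight attach, 37° C./5% CO2. Cpd from DMSO stock diluted in medium, 72 h. Readout: CCK-8 (1:10). Ctrl 1‰ DMSO.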

Question: CCCC[C@H](CN(O)C=O)C(=O)N1CC2(CC2)C[C@H]1C(=O)Nc1nccs1 [Example 22] was tested. Which inhibition at 30 µM [1] did it give?
Answer: The inhibition at 30 µM was 14%.

Question: And the inhibition at 30 µM ([2]; Homo sapiens, Bel-7402, 72 h)?
Answer: The inhibition at 30 µM was > 50%.

Question: What about the “Inhibition of proliferation, Liver cancer BEL-7402” value ([2]; 72 hours, 30 µM) of the same compound?
Answer: Its value is 51%.

Question: And the inhibition at 30 µM [3]?
Answer: Its inhibition at 30 µM is 21%.

Question: And the MIC (anti-bacterial activity) ([4]; strain MRSA 15-1)?
Answer: Its MIC (anti-bacterial activity) is 0.06 µg/mL (≈ 0.152 µM).

Question: And the MIC (anti-bacterial activity) ([4]; strain MRSA 15-2)?
Answer: Its MIC (anti-bacterial activity) is 0.25 µg/mL (≈ 0.634 µM).

Question: And the MIC (anti-bacterial activity) ([4]; strain MRSA 15-3)?
Answer: The MIC (anti-bacterial activity) was 0.06 µg/mL (≈ 0.152 µM).

Question: What about the MIC (anti-bacterial activity) ([4]; strain MRSA 15-4) of the same compound?
Answer: Its MIC (anti-bacterial activity) is 0.25 µg/mL (≈ 0.634 µM).

Question: And the MIC (anti-bacterial activity) ([5]; strain ECO+ 15-1)?
Answer: The MIC (anti-bacterial activity) was 16 µg/mL (≈ 40.6 µM).

Question: And the MIC (anti-bacterial activity) ([5]; strain ECO+ 15-2)?
Answer: The MIC (anti-bacterial activity) was 64 µg/mL (≈ 162 µM).

Question: And the MIC (anti-bacterial activity) ([5]; strain ECO+ 15-3)?
Answer: The MIC (anti-bacterial activity) was 32 µg/mL (≈ 81.1 µM).

Question: And the MIC (anti-bacterial activity) ([5]; strain ECO+ 15-4)?
Answer: Its MIC (anti-bacterial activity) is 32 µg/mL (≈ 81.1 µM).

Question: And the MIC (anti-bacterial activity) ([5]; strain ECO− 15-1)?
Answer: Its MIC (anti-bacterial activity) is 32 µg/mL (≈ 81.1 µM).

Question: What about the MIC (anti-bacterial activity) ([5]; strain ECO− 15-2) of the same compound?
Answer: Its MIC (anti-bacterial activity) is 64 µg/mL (≈ 162 µM).

Question: And the MIC (anti-bacterial activity) ([5]; strain ECO− 15-3)?
Answer: Its MIC (anti-bacterial activity) is 64 µg/mL (≈ 162 µM).

Question: What about the MIC (anti-bacterial activity) ([5]; strain ECO− 15-4) of the same compound?
Answer: Its MIC (anti-bacterial activity) is 64 µg/mL (≈ 162 µM).

Question: And the MIC (anti-bacterial activity) ([6]; strain SPN 16-2)?
Answer: The MIC (anti-bacterial activity) was 2 µg/mL (≈ 5.07 µM).

Question: What about the MIC (anti-bacterial activity) ([6]; strain SPN 16-4) of the same compound?
Answer: The MIC (anti-bacterial activity) was 0.5 µg/mL (≈ 1.27 µM).

Question: And the MIC (anti-bacterial activity) ([7]; strain MSSE 15-3)?
Answer: Its MIC (anti-bacterial activity) is 0.06 µg/mL (≈ 0.152 µM).

Question: What about the MIC (anti-bacterial activity) ([7]; strain MSSE 15-4) of the same compound?
Answer: Its MIC (anti-bacterial activity) is 0.03 µg/mL (≈ 0.076 µM).

Question: And the MIC (anti-bacterial activity) ([7]; strain MSSE 15-5)?
Answer: The MIC (anti-bacterial activity) was 0.03 µg/mL (≈ 0.076 µM).

Question: And the MIC (anti-bacterial activity) ([7]; strain MSSE 15-6)?
Answer: The MIC (anti-bacterial activity) was 0.03 µg/mL (≈ 0.076 µM).

Question: What about the MIC (anti-bacterial activity) ([8]; strain MRSE 15-1) of the same compound?
Answer: Its MIC (anti-bacterial activity) is 0.03 µg/mL (≈ 0.076 µM).

Question: What about the MIC (anti-bacterial activity) ([8]; strain MRSE 15-2) of the same compound?
Answer: The MIC (anti-bacterial activity) was 0.06 µg/mL (≈ 0.152 µM).

Question: And the MIC (anti-bacterial activity) ([8]; strain MRSE 15-3)?
Answer: Its MIC (anti-bacterial activity) is 0.125 µg/mL (≈ 0.317 µM).

Question: And the MIC (anti-bacterial activity) ([8]; strain MRSE 15-7)?
Answer: The MIC (anti-bacterial activity) was 0.125 µg/mL (≈ 0.317 µM).

Question: And the MIC (anti-bacterial activity) ([9]; strain EFM 15-1)?
Answer: Its MIC (anti-bacterial activity) is 0.5 µg/mL (≈ 1.27 µM).

Question: And the MIC (anti-bacterial activity) ([9]; strain EFM 15-2)?
Answer: The MIC (anti-bacterial activity) was 2 µg/mL (≈ 5.07 µM).

Question: And the MIC (anti-bacterial activity) ([9]; strain EFM 15-3)?
Answer: Its MIC (anti-bacterial activity) is 0.25 µg/mL (≈ 0.634 µM).

Question: What about the MIC (anti-bacterial activity) ([9]; strain EFM 15-4) of the same compound?
Answer: Its MIC (anti-bacterial activity) is 0.5 µg/mL (≈ 1.27 µM).

Question: And the MIC (anti-bacterial activity) ([9]; strain EFM 15-5)?
Answer: Its MIC (anti-bacterial activity) is 0.25 µg/mL (≈ 0.634 µM).

Question: What about the MIC (anti-bacterial activity) ([9]; strain EFM 15-6) of the same compound?
Answer: The MIC (anti-bacterial activity) was 0.5 µg/mL (≈ 1.27 µM).

Question: What about the MIC ([10]; 7 clinical isolates, range over strains, read-out: Moraxella catarrhalis (n = 7) MIC) of the same compound?
Answer: Its MIC is 0.06 to 0.5 µg/mL (≈ 0.152 to 1.27 µM).

Question: And the MIC ([10]; lowest MIC reached, read-out: minimum inhibitory concentration against Moraxella catarrhalis, as low as)?
Answer: The MIC was ≥ 0.06 µg/mL.

Question: What about the MIC (anti-bacterial activity) ([10]; strain BCA 14-1) of the same compound?
Answer: The MIC (anti-bacterial activity) was 0.5 µg/mL (≈ 1.27 µM).

Question: And the MIC (anti-bacterial activity) ([10]; strain BCA 14-4)?
Answer: The MIC (anti-bacterial activity) was 0.25 µg/mL (≈ 0.634 µM).

Question: And the MIC (anti-bacterial activity) ([10]; strain BCA 14-5)?
Answer: The MIC (anti-bacterial activity) was 0.06 µg/mL (≈ 0.152 µM).

Question: And the MIC (anti-bacterial activity) ([10]; strain BCA 14-6)?
Answer: Its MIC (anti-bacterial activity) is 0.06 µg/mL (≈ 0.152 µM).

Question: And the MIC (anti-bacterial activity) ([10]; strain BCA 14-7)?
Answer: The MIC (anti-bacterial activity) was 0.125 µg/mL (≈ 0.317 µM).

Question: And the MIC (anti-bacterial activity) ([10]; strain BCA 14-8)?
Answer: Its MIC (anti-bacterial activity) is 0.5 µg/mL (≈ 1.27 µM).

Question: And the MIC (anti-bacterial activity) ([10]; strain BCA 14-10)?
Answer: Its MIC (anti-bacterial activity) is 0.125 µg/mL (≈ 0.317 µM).

Question: What about the MIC (anti-bacterial activity) ([11]; strain EFA 15-1) of the same compound?
Answer: The MIC (anti-bacterial activity) was 2 µg/mL (≈ 5.07 µM).

Question: What about the MIC (anti-bacterial activity) ([11]; strain EFA 15-2) of the same compound?
Answer: Its MIC (anti-bacterial activity) is 2 µg/mL (≈ 5.07 µM).

Question: And the MIC (anti-bacterial activity) ([11]; strain EFA 15-3)?
Answer: Its MIC (anti-bacterial activity) is 1 µg/mL (≈ 2.53 µM).

Question: What about the MIC (anti-bacterial activity) ([11]; strain EFA 15-4) of the same compound?
Answer: The MIC (anti-bacterial activity) was 2 µg/mL (≈ 5.07 µM).

Question: And the MIC (anti-bacterial activity) ([11]; strain EFA 15-5)?
Answer: The MIC (anti-bacterial activity) was 2 µg/mL (≈ 5.07 µM).

Question: What about the MIC (anti-bacterial activity) ([11]; strain EFA 15-6) of the same compound?
Answer: The MIC (anti-bacterial activity) was 2 µg/mL (≈ 5.07 µM).

Question: What about the MIC (anti-bacterial activity) ([11]; strain EFA 15-9) of the same compound?
Answer: The MIC (anti-bacterial activity) was 2 µg/mL (≈ 5.07 µM).

Question: What about the MIC (anti-bacterial activity) ([12]; strain MSSA 15-3) of the same compound?
Answer: The MIC (anti-bacterial activity) was 0.06 µg/mL (≈ 0.152 µM).

Question: What about the MIC (anti-bacterial activity) ([12]; strain MSSA 15-4) of the same compound?
Answer: The MIC (anti-bacterial activity) was 0.06 µg/mL (≈ 0.152 µM).

Question: And the MIC (anti-bacterial activity) ([12]; strain MSSA 15-5)?
Answer: Its MIC (anti-bacterial activity) is 0.03 µg/mL (≈ 0.076 µM).

Question: And the MIC (anti-bacterial activity) ([12]; strain MSSA 15-6)?
Answer: The MIC (anti-bacterial activity) was 0.06 µg/mL (≈ 0.152 µM).

Question: What about the inhibition at 30 µM ([13]; Homo sapiens, HCT-116, 72 h, read-out: HCT116 inhibition rate/%) of the same compound?
Answer: The inhibition at 30 µM was > 50%.

Question: And the HCT116 inhibition rate/% ([13]; 30 µM)?
Answer: The HCT116 inhibition rate/% was 52%.
